Values quoted from earlier work as cited in PMC7527728, “CPSF6-Dependent Targeting of Speckle-Associated Domains Distinguishes Primate from Nonprimate Lentiviral Integration” (mBio, 2020).

Columns and labels:
[1] = system: HIV-1 capsid hexamers; parameters: method as in PMID 25518861; conditions: more efficiently than the NTD
[2] = system: A77V capsid nanotubes; conditions: in vitro, as efficiently as WT capsid
Excerpt: (§1) The 5.2% reduction in genic HIV-1 integration targeting in Jurkat CKD cells was noticeably less than the 22.1% reduction in CKO cells (compare Fig. 4A and Fig. 3A). While the reason for this difference is unclear, it seemed possible that the residual level of CPSF6 protein that persisted in CKD cells (Fig. 2D) could be a contributing factor. We accordingly next mapped integration sites of N74D and A77V capsid mutant viruses in Jurkat T cells. N74D and A77V capsid nanotubes bound CPSF6 ∼5% and 30%, respectively, as efficiently as WT capsid complexes in vitro ([43]).

[3] = system: N74D capsid nanotubes; conditions: in vitro
Excerpt: as §1

Substance | binding to capsid hexamers relative to NTD [1] | CPSF6 binding relative to WT capsid complexes [2] [%] | CPSF6 binding relative to WT capsid complexes [3] [%]
CPSF6 peptide: CPSF6 peptide binding HIV-1 capsid hexamers, ref 45 | approximately 10 -fold | – | –
CPSF6: cleavage and polyadenylation specificity factor 6 | – | ~30 | ~5
